The values below come from ChEMBL document CHEMBL4602611, “Discovery of 1,2,4-triazine-based derivatives as novel neddylation inhibitors and anticancer activity studies against gastric cancer MGC-803 cells” (Bioorg Med Chem Lett, 2020).

Active and inactive are the calls of the source. The calls are words filed in the database; no cut-off is given here.

In one test the test system is PC-3. Put plainly: Antiproliferative activity against human PC3 cells assessed as inhibition of cell growth incubated for 48 hrs by MTT assay. The format is functional, cell-based. Particulars: PC-3, 48 h. For orientation: Tetrazolium dyes change colour on reduction, which living cells bring about.
A further test concerns ECa-109 cell line. Put plainly: Antiproliferative activity against human EC109 cells assessed as inhibition of cell growth incubated for 48 hrs by MTT assay. The following applies: ECa-109, 48 h. Format: functional, cell-based.
For test [1], the system named is MGC-803. Put plainly: Antiproliferative activity against human MGC803 cells assessed as inhibition of cell growth incubated for 48 hrs by MTT assay. The format is functional, cell-based. Particulars: for IC50: MGC-803, 48 h.
For test [2], the system named is MGC-803. The experiment in a line: Downregulation of Cyclin B1 protein expression in human MGC803 cells at 5 to 20 umol/l incubated for 24 hrs by Western blot analysis. The format is functional, cell-based. A general note: Immunoblotting shows a protein as a band on a membrane.
Test [3] has as its system MGC-803. The experiment in a line: Upregulation in Bax protein expression in human MGC803 cells at 5 to 20 umol/l incubated for 48 hrs by Western blot analysis. Format: functional, cell-based.
For test [4], the target named is T1, NEDD8-activating enzyme E1 regulatory subunit (Homo sapiens) (UniProt Q13564).
T1 sequence (whole entry): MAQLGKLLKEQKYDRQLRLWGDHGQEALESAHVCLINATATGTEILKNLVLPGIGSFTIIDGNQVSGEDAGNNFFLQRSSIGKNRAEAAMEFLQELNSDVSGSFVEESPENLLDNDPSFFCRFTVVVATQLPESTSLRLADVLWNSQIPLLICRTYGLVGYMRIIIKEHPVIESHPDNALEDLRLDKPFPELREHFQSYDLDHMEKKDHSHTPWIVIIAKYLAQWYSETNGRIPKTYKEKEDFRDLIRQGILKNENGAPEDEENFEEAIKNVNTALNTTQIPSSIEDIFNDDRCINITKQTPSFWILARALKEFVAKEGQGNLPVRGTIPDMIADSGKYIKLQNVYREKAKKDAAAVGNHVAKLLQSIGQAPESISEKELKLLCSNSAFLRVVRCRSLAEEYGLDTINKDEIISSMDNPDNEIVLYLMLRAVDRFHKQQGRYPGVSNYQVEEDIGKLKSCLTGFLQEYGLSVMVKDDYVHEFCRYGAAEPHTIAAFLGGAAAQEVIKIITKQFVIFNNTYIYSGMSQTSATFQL
The experiment in a line: Inhibition of NAE-mediated neddylation in human MGC803 cells assessed as reduction in Nedd8-Cullin3 adduct formation at 10 uM incubated for 24 hrs by Western blot analysis. The format is cell-based. The following applies: MGC-803.

Test [5] deals with MGC-803. The experiment in a line: Induction of cell cycle arrest in human MGC803 cells assessed as fold change in accumulation in G2/M phase at 5 to 20 umol/l incubated for 24 hrs by propidium iodide staining based flow cytometric analysis relative to control. The format is functional.
For test [6], the system named is MGC-803. The experiment in a line: Induction of cell cycle arrest in human MGC803 cells assessed as accumulation in G2/M phase at 5 to 20 umol/l incubated for 24 hrs by propidium iodide staining based flow cytometric analysis. The format is functional. On the technique in general: Flow cytometry measures light scatter and fluorescence of single cells or particles in a stream.

In test [7] the test system is MGC-803. Put plainly: Increase in CHOP protein expression in human MGC803 cells at 5 to 20 umol/l incubated for 24 hrs by Western blot analysis. Format: functional, cell-based.
In test [8] the test system is MGC-803. The experiment in a line: Increase in ATF4 protein expression in human MGC803 cells at 5 to 20 umol/l incubated for 24 hrs by Western blot analysis. Format: functional, cell-based.
In test [9] the target is T1, NEDD8-activating enzyme E1 regulatory subunit (Homo sapiens). The experiment in a line: (§1) Inhibition of NAE-mediated neddylation in human MGC803 cells assessed as reduction in Nedd8-Ubcl2 adduct formation incubated for 24 hrs by Western blot analysis. Format: cell-based. The following applies: MGC-803.
The target of test [10] is T2, NEDD8-activating enzyme E1 regulatory subunit (Homo sapiens, UniProt Q13564).
T2 sequence (Q13564 whole entry): T1 sequence (whole entry)
Described as §1. Format: cell-based, MGC-803.

Test [11] relates to MGC-803. The experiment in a line: Increase in p21 protein expression in human MGC803 cells at 5 to 20 umol/l incubated for 24 hrs by Western blot analysis. The format is functional, cell-based.
Test [12] relates to MGC-803. The experiment in a line: Downregulation of CDK1 protein expression in human MGC803 cells at 5 to 20 umol/l incubated for 24 hrs by Western blot analysis. The format is functional, cell-based.
Test [13] concerns MGC-803. Put plainly: Downregulation of XIAP protein expression in human MGC803 cells at 5 to 20 umol/l incubated for 48 hrs by Western blot analysis. The format is functional, cell-based.
Test [14] has as its target T1, NEDD8-activating enzyme E1 regulatory subunit (Homo sapiens). The experiment in a line: Inhibition of NAE-mediated neddylation in human MGC803 cells assessed as reduction in Nedd8-Ubcl2 adduct formation at 10 uM incubated for 24 hrs by Western blot analysis relative to control. The format is cell-based. The following applies: MGC-803.
For test [15], the system named is MGC-803. Put plainly: Induction of apoptosis in human MGC803 cells at 5 to 20 umol/l incubated for 48 hrs by AnnexinV-FITC/PI staining based flow cytometric analysis relative to control. The format is functional.
Test [16] concerns the target T1, NEDD8-activating enzyme E1 regulatory subunit (Homo sapiens). The experiment in a line: Inhibition of NAE-mediated neddylation in human MGC803 cells assessed as reduction in NAE1-Nedd8 adduct formation at 10 uM incubated for 24 hrs by Western blot analysis. Format: cell-based. The following applies: MGC-803.
For test [17] the target is unchanged. Put plainly: Inhibition of NAE-mediated neddylation in human MGC803 cells assessed as reduction in Nedd8-Cullin1 adduct formation by Western blot analysis. Format: cell-based.
For test [18], the system named is MGC-803. The experiment in a line: Inhibition of colony formation in human MGC803 cells at 0.5 uM incubated for 7 days by crystal violet staining based assay. Format: functional, cell-based.
Test [19] has as its system MGC-803. The experiment in a line: Antiproliferative activity against human MGC803 cells assessed as fold increase in cell growth at 10 umol/l incubated for 48 hrs by MTT assay relative to control. Format: functional.
Test [20] has as its system MGC-803. The experiment in a line: Induction of apoptosis in human MGC803 cells assessed as increase in cleaved PARP expression at 5 to 20 umol/l incubated for 48 hrs by Western blot analysis. Format: functional, cell-based.
Test [21] relates to MGC-803. The experiment in a line: Increase in Noxa protein expression in human MGC803 cells at 5 to 20 umol/l incubated for 24 hrs by Western blot analysis. Format: functional, cell-based.
In test [22] the target is T1, NEDD8-activating enzyme E1 regulatory subunit (Homo sapiens). Put plainly: Inhibition of NAE (unknown origin)-mediated neddylation assessed as decrease in Nedd8-Ubcl2 adduct formation at 5 uM by Western blot analysis.
Test [23] relates to MGC-803. Put plainly: Induction of apoptosis in human MGC803 cells assessed as increase in cleaved caspase3 expression at 5 to 20 umol/l incubated for 48 hrs by Western blot analysis. The format is functional, cell-based.
Test [24] deals with T1, NEDD8-activating enzyme E1 regulatory subunit (Homo sapiens). Put plainly: Inhibition of NAE-mediated neddylation in human MGC803 cells assessed as reduction in Nedd8-Ubcl2 adduct formation at 5 uM incubated for 24 hrs by Western blot analysis. Format: cell-based. Particulars: MGC-803.
Test [25] deals with MGC-803. The experiment in a line: Increase in DR5 protein expression in human MGC803 cells at 5 to 20 umol/l incubated for 24 hrs by Western blot analysis. Format: functional, cell-based.
Test [26] has as its system MGC-803. Put plainly: Antiproliferative activity against human MGC803 cells assessed as inhibition of cell growth at 10 umol/l measured within 48 hrs of incubation by MTT assay. Format: functional, cell-based.
Test [27] deals with MGC-803. Put plainly: Induction of apoptosis in human MGC803 cells assessed as increase in cleaved caspase9 expression at 5 to 20 umol/l incubated for 48 hrs by Western blot analysis. Format: functional, cell-based.
For test [28], the target named is T1, NEDD8-activating enzyme E1 regulatory subunit (Homo sapiens). Put plainly: Inhibition of NAE (unknown origin)-mediated neddylation assessed as decrease in Nedd8-Ubcl2 adduct formation at 10 uM by Western blot analysis.

Take `COc1cc(Nc2nc(Nc3ccc(C(C)=O)cc3)nnc2Cl)cc(OC)c1OC`: the figures for the half-inhibitory concentration (IC50) in the test on PC-3, in the test with ECa-109 cell line and in the test with MGC-803 [1] were 38.6 µM, 36.3 µM and 13 µM, respectively.
Take `COc1cc(Nc2nnc(Cl)c(Nc3cc(OC)c(OC)c(OC)c3)n2)cc(OC)c1OC`: the IC50 is 34.3 µM in the test with PC-3, over 50 µM in the test with ECa-109 cell line and 24.3 µM in the test on MGC-803 [1].
For `COc1cc(Nc2nc(Nc3ccc(C(N)=O)cc3)nnc2Cl)cc(OC)c1OC`, in that order: 32.1 µM, 42.4 µM and 15.2 µM.
In the case of `COc1cc(Nc2nc(Nc3ccc(C)cc3)nnc2Cl)cc(OC)c1OC`, the IC50 with PC-3 turned out to be 14.3 µM; in the test on ECa-109 cell line, 27.3 µM; in the test with MGC-803 [1] it was 19.8 µM.
Take `CCOC(=O)c1ccc(Nc2nnc(Cl)c(Nc3cc(OC)c(OC)c(OC)c3)n2)cc1`: the values for the IC50 in the test on PC-3, with ECa-109 cell line and with MGC-803 [1] were 58.5 µM, 46.6 µM and 53.6 µM, respectively.
On to `COc1cc(Nc2nc(Nc3ccc4[nH]ccc4c3)nnc2Cl)cc(OC)c1OC`, for which the inhibition entry (in the test with MGC-803 [2]; in test [4]; in the test on MGC-803 [12]; with MGC-803 [13]; in test [16]; in the test on MGC-803 [18]) was “Active” in each case. Moreover, the inhibition entry in [22] and in test [24] was “Active” in each case. Moreover, the outcome in the test on MGC-803 [3], in the test with MGC-803 [6], in the test on MGC-803 [7], in the test on MGC-803 [8], in the test on MGC-803 [11] and with MGC-803 [20] was Active. For the same compound, the result in the test on MGC-803 [21], in the test with MGC-803 [23], in the test on MGC-803 [25], with MGC-803 [26] and in the test with MGC-803 [27] was Active. Moreover, the IC50 with PC-3 turned out to be 9.28 µM; with ECa-109 cell line, 9.64 µM; with MGC-803 [1] it was 8.22 µM. Besides, the “fold change (FC)” value is listed as 2 with MGC-803 [5] and 1.3 in the test with MGC-803 [19]. The inhibition entry in test [9] was “Dose-dependent effect”; in test [14], 100%; in test [17] (MGC-803, TDE = time-dependent effect) it was “Tde”; in the test with MGC-803 [1], “Dose-dependent effect”. The EC50 in test [10] came out at 3.56 µM. In the test with MGC-803 [15], this compound showed an Activity of 60%.
As for `COc1cc(Nc2nc(Cl)nnc2Cl)cc(OC)c1OC`, the inhibition entry in [17] (MGC-803) was “Dose-dependent effect”.
In the case of `COc1ccc(Nc2nnc(Cl)c(Nc3cc(OC)c(OC)c(OC)c3)n2)cc1`, the IC50 in the test on PC-3 came to 13.5 µM; in the test with ECa-109 cell line it was 22.3 µM; in the test with MGC-803 [1] it was 18.9 µM.
In the case of `COc1cc(Nc2nc(Nc3ccccc3)nnc2Cl)cc(OC)c1OC`, the IC50 came to 9.75 µM in the test on PC-3, 12.6 µM with ECa-109 cell line and 8.75 µM in the test on MGC-803 [1].
For `COc1cc(Nc2nc(Nc3ccc(Br)cc3)nnc2Cl)cc(OC)c1OC`, in that order: 8.99 µM, 41.6 µM and 11.3 µM.
Regarding `O=c1[nH]cc(F)c(=O)[nH]1` [FLUOROURACIL], the IC50 with ECa-109 cell line came to 21.2 µM.
As for `NS(=O)(=O)OC[C@@H]1C[C@@H](n2ccc3c(N[C@H]4CCc5ccccc54)ncnc32)C[C@@H]1O`, the inhibition result in test [28] was “Active”.
Consider `COc1cc(Nc2nc(Nc3ccc4c(ccn4C)c3)nnc2Cl)cc(OC)c1OC`, for which the half-inhibitory concentration (IC50) in the test with PC-3 was determined as 48.5 µM; in the test on ECa-109 cell line, 42.1 µM; with MGC-803 [1], 28.1 µM.
In the case of `COc1cccc(Nc2nnc(Cl)c(Nc3cc(OC)c(OC)c(OC)c3)n2)c1`, the IC50 in the test with PC-3 amounted to 11.3 µM; with ECa-109 cell line, 15.9 µM; with MGC-803 [1], 16.5 µM.
For `COc1cc(Nc2nc(Nc3ccc(Cl)cc3)nnc2Cl)cc(OC)c1OC`, in that order: 9.61 µM, 32.6 µM and 12.6 µM.

For orientation: IC50 means the midpoint of a concentration-inhibition curve. The inhibition is the change of the read-out against control, counted positive when it falls. A word on the EC50: it is the concentration that produces a half-maximal response.
